Laboratory results: US20100087539A1, “N'--3-AMINO-3-PHENYLPROPEONIC ACID AND THE PHARMACEUTICALLY ACCEPTABLE DERIVATIVES THEREOF, A METHOD FOR THE PRODUCTION AND THE USE THEREOF IN THE FORM OF A MEDICINAL AGENT” (priority 2006, published 2010)
“And” between values parts separate entries of the source, which are not always exact repeats. Equal entries are not always repeated. Where two headings read alike, the source gives them in different places.

What was measured:
[1] = test system: B-cellular immunity; assay: B-cellular immunity upon immunization with BSA, specific antibody titer by enzyme-linked immunoassay; format: in vivo, mice; conditions: for Antibody titer (inverse value): mice, s.c. BSA with compound, sera at day 10 post second immunization; for Immunogenicity coefficient: relative to BSA without the preparation
Method: 400 μg of BSA was injected subcutaneously to the animals in 0.5 ml of 0.9% NaCl. Three groups of control animals were involved. […] Additionally, glycyrrhizinic acid (GA) was used as a known immunomodulator. Preimmune mice served as a control. At day 21 the second immunization was performed similarly (the injection solution contained 100 μg of BSA and 200 μg of the test compound). At day 10 post the second immunization blood sera were collected. The titer of antibodies was determined by an enzyme-linked immunoassay technique according to the procedure as described [Enzyme-linked immunoassay technique//Edited by T. T. Igo, G. Lenkhoffaju—Moscow: Mir, 1998].

[2] = test system: T-cellular immunity; assay: T-cellular immunity upon immunization with sheep red blood cells, rosette formation method; format: in vivo, mice; conditions: for Number of rosettes per 10^3 cells: mice, s.c. SRBC with compound (10 mg/kg), splenocytes at day 6; for Stimulation index: rosettes with compound / rosettes with SRBC alone
Method: The effect on stimulating T-cellular immunity upon injection with a strong antigen of sheep red blood cells (SRBC) was studied by the rosette formation method.
Outbred male mice weighing 20-22 g were used in the experiment. […] SRBC without dipeptide 1 (negative control) or SRBC with IFA or with GA (positive control) were injected to the control animals; another control group—preimmune animals. At day 6 post immunization a suspension of splenocytes was prepared at a concentration of […] per 1 milliliter. 0.9 ml of the splenocyte suspension and 0.1 ml of a suspension of sheep red blood cells (10^9 cells per milliliter) were placed in glass vials, mixed and incubated for 16 h at 4° C. After incubation, 4 ml of a cold medium was added into the glass vial, carefully mixed; 100 μl of cell suspension was withdrawn using a pipette with a wide-bore mouth, stained with a 0.4% trypan blue solution and the number of rosettes was counted in a Gorjaev's chamber [Friemel H Immunological methods/Translated from German, edited by M. A. Frolova.—Moscow: Mir, 1979, 518 p.]. The results are presented as the number of rosettes formed per […]. The stimulation index was calculated as a ratio of the number of rosettes in the experiment (immunization with SRBC in a mixture with the compound studied) and the number of rosettes in the control (immunization with SRBC alone).

[3] = test system: HIV-1/EVK; assay: microbe, parasite or virus in culture; format: cell-based; conditions: added after virus adsorption; for EC50: read-out: Protection of cells from death PD50
Method: The Anti-HIV activity of dipeptide 1 was studied on a highly HIV-sensitive cell culture MT-4. […] Then, aliquots of serial dilutions of dipeptide 1 in DMSO were added into the wells to the final concentrations of 0.1 ng/ml to 1 μg/ml (each concentration in triplicate). The experimental (with the preparation added) and control (without the preparation added) infected cells were cultivated at 37° C. and 5% CO2 for 4 days. […] 3, p. […] The inhibiting dose for dipeptide 1 is 0.4 μM. The dose of the compound protecting the cells from death (PD50) was also determined. […] Additionally, the selectivity index (IS) calculated as a ratio of the toxic dose of dipeptide 1 to the protection dose thereof PD50 (CD50/PD50) was determined.

[4] = test system: HIV-1/EVK; assay: microbe, parasite or virus in culture; format: cell-based; conditions: added simultaneously with the virus
Method: The anti-HIV activity of dipeptide 1 was studied on a highly HIV-sensitive cell culture MT-4. The MT-4 cells were added into the wells of a 96-well culture plate and infected with a virus stock (strain HIV-1/EVK) at a multiplicity of infection of 0.2-0.5 tissue culture infective dose per cell, then the test substance was added into a cell suspension simultaneously with the virus to give the final concentration of 0.00001 to 1 μg/ml (each concentration in triplicate) and incubated at 37° C. for 1 h (virus adsorption). On completion of the incubation, the suspension of the infected cells was diluted with a complete growth medium with all supplements as described above containing the preparations in the same concentrations to give the inoculation concentration of 0.5×10^6 cells/ml.
The experimental (with the preparation added) and control (without the preparation added) infected cells and control uninfected cells (without the preparation added) were cultivated at 37° C. and 5% CO2 for 4 days. On completion of the incubation the proportion of viable cells was counted in a Gorjaev's chamber after staining with a 0.4% trypan blue solution and the accumulation level of virus-specific protein p24 was controlled by the immunoenzyme method as described [Fedyuk N. V., Konovalov E. E., Loktev V. B., Uryvaev L. V., Kulyandin S. A., Pokrovsky A. G.//Problems of Virology, 1992, v. 3, p. 135].
In addition, the inhibiting dose ID90 that corresponds to the concentration of dipeptide 1 suppressing the virus production by 90% was determined. […] PD50, the concentration of dipeptide 1 protecting by 50% the infected cells from the virus-induced cytopathic effect was also calculated as described earlier by us [Svinarchuk P. P., Konevetz D. A., Pliasunova O. A., Pokrovsky A. G., Vlassov V. V.//Biochimie, 1993, Bd. 75, S. 243]. […] Comparing the concentrations inducing 50 and 90% inhibition of virus accumulation provides an important characteristic of the anti-viral activity.

[5] = test system: white outbred mice; assay: Acute toxicity, intraperitoneal injection; format: in vivo
Method: 0.5 ml of the compound was injected intraperitoneally to mice weighing 20 g, each group comprising 4 animals. 0.5 ml of sterile sunflower oil was injected to the control mice.

[6] = test system: MT-4 cells; assay: Cytotoxicity on MT-4 cells (trypan blue viable cell count, 4 days); conditions: concentration reducing by 50% the proportion of viable MT-4 cells
[7] = test system: MT-4 cells; conditions: human, 4 days
[8] = Human immunodeficiency virus 1, MT4, 96 h, MT-4, HIV-1/EVK, 4 days, read-out: Inhibition of P24 accumulation ID50

Compound	Antibody titer (inverse value) [1]	Immunogenicity coefficient [1]	Number of rosettes per 10^3 cells [2]	Stimulation index [2]	Inhibition of P24 accumulation ID90 ([3]; MT-4, HIV-1/EVK, 4 days)	EC50 ([3]; MT-4, HIV-1/EVK) [µM]	Inhibition of P24 accumulation ID90 ([4]; MT-4, HIV-1/EVK, 4 days)	EC50 ([4]; concentration protecting by 50% the infected cells from virus-induced cytopathic effect, read-out: PD50) [µM]	hazard class ([5]; from LD50, mice)	LD50 ([5]; mice of both sexes)	CD50 [6] [µM]	CD50 [7] [µM]	IS (selectivity index) ([3]; CD50/ID50)	IC50 [3, 8] [µM]	EC50 ([3]; Human immunodeficiency virus 1, MT4, MT-4, HIV-1/EVK) [µM]	IS (selectivity index) ([4]; CD50/ID50)	IC50 [4, 8] [µM]
CC1(C)[C@@H](O[C@H]2O[C@H](C(=O)O)[C@@H](O)[C@H](O)[C@H]2O[C@@H]2O[C@H](C(=O)O)[C@@H](O)[C@H](O)[C@H]2O)CC[C@]2(C)[C@H]3C(=O)C=C4[C@@H]5C[C@@](C)(C(=O)O)CC[C@]5(C)CC[C@@]4(C)[C@]3(C)CC[C@@H]12 [GA, glycyrrhizinic acid]	5120	25.6	24 ± 1.1	2.0	–	–	–	–	–	–	–	–	–	–	–	–	–
N′-{N-[3-oxo-lupan-28-oyl]-9-aminononanoyl}-3-amino-3-phenylpropionic acid [Compound 1]	–	–	24 ± 1.3	–	Not achieved	0.25	0.10 µM and 0.1 µM	0.015	class 3 of moderately hazardous substances	more than 2500 mg/kg	6.8	–	–	–	–	–	–
C=C(C)[C@@H]1CC[C@]2(C(=O)NCCCCCCCCC(=O)NC(CC(=O)O)c3ccccc3)CC[C@]3(C)C(CCC4[C@@]5(C)CCC(=O)C(C)(C)C5CC[C@]43C)C12 (stereo partly drawn) [Compound 9]	51200	256	21 ± 1.4	1.8	Not achieved	–	0.198 µM	–	–	–	–	5.6	14.0	0.4	0.5	2135	0.0026
